Laboratory results as given in publication PMC12362585, “Development and Preclinical Characterization of [^18F]H3-2406 and [^18F]H3-2407 for Positron Emission Tomography Imaging of the Histamine Subtype‑3 Receptor” (Journal of Medicinal Chemistry, 2025).

Assays:
H3R = target: T1, H3R (Homo sapiens, UniProt Q9Y5N1); test: H3R competitive radioligand binding assay using [^3H]AZ13582963; settings: competitive binding vs [^3H]AZ13582963; read-out: H3R K i
T1 construct: Gifford Bioscience (contract laboratory that ran the assay)
T1 sequence (Q9Y5N1 whole entry, species assumed): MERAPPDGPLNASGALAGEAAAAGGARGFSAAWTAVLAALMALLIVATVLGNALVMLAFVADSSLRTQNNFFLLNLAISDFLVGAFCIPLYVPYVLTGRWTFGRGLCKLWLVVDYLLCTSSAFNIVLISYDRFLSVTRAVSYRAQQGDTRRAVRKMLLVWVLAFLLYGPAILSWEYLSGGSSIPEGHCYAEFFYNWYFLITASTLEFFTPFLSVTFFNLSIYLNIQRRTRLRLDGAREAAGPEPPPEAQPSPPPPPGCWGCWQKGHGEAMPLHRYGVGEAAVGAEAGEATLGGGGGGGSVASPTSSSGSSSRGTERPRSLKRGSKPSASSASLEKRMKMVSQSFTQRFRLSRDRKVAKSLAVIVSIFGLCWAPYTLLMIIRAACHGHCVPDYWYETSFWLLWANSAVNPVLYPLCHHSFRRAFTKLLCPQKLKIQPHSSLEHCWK

[1] = Log D by shake-flask method; format: physicochemical; settings: n-octanol/PBS
Protocol: To evaluate the binding affinities of compounds 1–9, competitive radioligand binding assays were conducted using [^3H]-AZ13582963 [4-(1S,2S)-2-(4-cyclobutylpiperazine-1-carbonyl)-cyclopropyl)-N-methyl-[2-^3 H]-benzamide]. […]. […]. Further, ACD Percepta predictions indicated these compounds are likely to cross the blood-brain barrier (BBB), as indicated by a log BB > −1 and a multiparameter optimization (MPO) score >4.0. High selectivity toward H3R over other CNS targets is essential for effective H3R PET imaging. Therefore, off-target screenings of compounds 2, 3, and 4 were conducted against various CNS receptors, G protein-coupled receptors (GPCRs), transporters, and ion channels at 10 μM (Figure S1). […]. Sigma-1 receptors, crucial for ion channel function and associated with learning, memory, and pain, , have shown synergy with H3R antagonists, including PF-03654746 and ABT-239, potentially enhancing in vivo efficacy.
The lipophilicity was measured according to previously reported methods. , In brief, PBS and n-octanol were premixed prior to the experiment. A solution containing 0.2 MBq of [^18F]3 or [^18F]4, PBS (3 mL) and n-octanol (3 mL) were prepared in a vial and vortexed for 5 min. The PBS and n-octanol layers were then separated and transferred into a centrifuge tube, followed centrifugation at 12,000 rpm for 5 min. Then PBS (0.5 mL) and n-octanol (0.05 mL) were weight and measured the radioactivity on a γ counter (PerkinElmer Wizard). The Log D values of [ ^18F]3 and [^18F]4 were calculated using the following formula: LogD=Log[(radioactivityn‐octanol/weightn‐octanol)/(radioactivityPBS/weightPBS)]

sigma-1 receptor = target: T2, sigma-1 receptor (Mus musculus, UniProt O55242); test: PET imaging in mice with NE-100 or ABT-239 blocking; format: in vivo
T2 construct: we conducted additional in vivo PET imaging studies using NE-100; from tissue; host or cells: brain of living mice
T2 sequence (O55242 whole entry): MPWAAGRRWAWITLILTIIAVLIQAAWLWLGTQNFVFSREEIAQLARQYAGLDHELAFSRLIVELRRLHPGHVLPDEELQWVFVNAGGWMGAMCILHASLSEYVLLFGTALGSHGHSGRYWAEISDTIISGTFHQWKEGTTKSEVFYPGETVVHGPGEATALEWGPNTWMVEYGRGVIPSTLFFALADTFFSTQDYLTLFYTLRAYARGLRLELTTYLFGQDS

[2] = In vitro stability in liver microsomes, humans; format: in vitro ADME; settings: 90 min
Protocol: To assess the stability of [^18F]3, in vitro radioactivity analyses were conducted following 30-, 60- and 90 min coincubation of the radioligand in the serum and liver microsomes from mice, nonhuman primates (NHPs), and humans (Figure ).
Serum from mice, NHPs, and humans were warmed to room temperature, 15 MBq of [^18F]3 was added to 0.4 mL of each species’ serum. The mixtures were incubated at 37 °C and 0.1 mL of mixture was transferred into 0.2 mL cold acetonitrile at 30, 60, and 90 min. The samples were vortexed for 15 s and then centrifuged at 10,000g for 5 min. The supernatant was analyzed using analytical HPLC (Agilent 1100 series HPLC system on Phenomenex Luna C-18 column (4.6 × 150 mm), mobile phase 30% CH3CN/0.1% TFA in water, flow:1 mL/min). For microsomes studies, a mixture of microsomes (0.5 mg/mL), [^18F]3 (15 MBq), 0.35 mL of PBS, 0.05 mL of NADPH regenerating system A, and 0.01 mL of NADPH regenerating system B were incubated at 37 °C. The subsequent steps followed the same procedure as described above.

O=C([C@H]1C[C@@H]1c1ccc([18F])cc1)N1CCN(C2CCCC2)CC1 [[^18F]3]
Ki (H3R): 2.87 nM
logD [1]: 2.82
effect of ABT-239 preinjection on brain signal (sigma-1 receptor; ABT-239 (dual H3R and sigma-1 receptor antagonist) 3 mg/kg): near-complete signal blockade
effect of NE-100 blocking on brain uptake (sigma-1 receptor; NE-100 (selective sigma-1 receptor antagonist) 3 mg/kg): partial reduction
parent fraction in liver microsomes [2]: 95%
